Assay results as given in US5356790A, “Highly sensitive assay method for myo-inositol, composition for practicing same, novel myo-inositol dehydrogenase, and process for producing same” (Asahi Kasei Kogyo Kabushiki Kaisha, priority 1990, dated 1994).
Where “and” joins values, the source holds several entries; their conditions need not be identical. Equal entries are not always repeated. Where two headings read alike, the source gives them in different places.

Assays:
[1] = system: myo-inositol dehydrogenase; assay: Substrate specificity of myo-inositol dehydrogenase; format: biochemical, Bacillus sp. No. 3; settings: myo-inositol = 100%
Experimental: 1. Substrate specificity:
The above reaction mixture (1 ml) is incubated in a small test tube at 37° C. for 5 mins. Diluted enzyme solution (0.02 ml) is added and the mixture is stirred to initiate the reaction. After exactly 10 mins., 0.1N HCl (2.0 ml) was added and the mixture is stirred to stop the reaction. Absorption at 550 nm (A550 nm) is measured to obtain absorption A1. The assay was repeated using the above reaction mixture except that myo-inositol was not included. The mixture is also treated in the same manner as described above and its absorption Ao was measured.
(3) Calculation of enzyme activity: [formula] wherein

[2] = system: myo-inositol dehydrogenase; assay: Km-value measurement for substrate and coenzymes; format: biochemical, Bacillus sp. No. 3
Experimental: Km-value for myo-inositol is measured at various concentrations of myo-inositol in a reaction mixture of:
Further in the reaction mixture, 1 mM NAD is replaced by 1 mM thio-NAD (Sigma Co. ) and the Km-value for myo-inositol is measured. The result is Km-value: 10.0 mM (myo-inositol).
Km-value in the reaction of NADP and myo-inositol are measured. The results are as follows:
Km-values in the reaction of the thio-NADP and myo-inositol are as follows: […]

[3] = system: myo-inositol dehydrogenase; settings: enzyme produced by yeast Cryptococcus melibiosum, cited from earlier work
[4] = system: myo-inositol dehydrogenase; assay: Relative activity with coenzyme thio-NAD compared to NAD; format: biochemical, Bacillus sp. No. 3

Molecule: O[C@H]1[C@H](O)[C@@H](O)[C@H](O)[C@@H](O)[C@H]1O [myo-inositol]
- Substrate specificity (relative activity) [1]: 100%
- Km ([2]; coenzyme 1 mM NAD, Tris-HCl buffer pH 8.5, read-out: Km-value (myo-inositol)): 640 µM and ~600 µM
- Km ([2]; coenzyme 1 mM thio-NAD, read-out: Km-value (myo-inositol)): 10000 µM
- Km ([2]; reaction of NADP and myo-inositol, read-out: Km-value (myo-inositol)): 30900 µM
- Km ([3]; read-out: Km value for myo-inositol): ~11000 µM

Molecule: OC[C@@H](O)[C@@H](O)[C@H](O)[C@@H](O)CO [sorbitol]
- Substrate specificity (relative activity) [1]: 0%

Molecule: OC[C@H]1O[C@@](CO)(O[C@H]2O[C@H](CO)[C@@H](O)[C@H](O)[C@H]2O)[C@@H](O)[C@@H]1O [saccharose]
- Substrate specificity (relative activity) [1]: 0%

Molecule: NC(=O)c1ccc[n+]([C@@H]2O[C@H](COP(=O)([O-])OP(=O)(O)OC[C@H]3O[C@@H](n4cnc5c(N)ncnc54)[C@H](O)[C@@H]3O)[C@@H](O)[C@H]2O)c1 [NAD, nicotinamide adenine dinucleotide]
- Km ([3]; read-out: Km value for NAD): ~70 µM

Molecule: NC(=O)c1ccc[n+]([C@@H]2O[C@H](COP(=O)([O-])OP(=O)(O)OC[C@H]3O[C@@H](n4cnc5c(N)ncnc54)[C@H](OP(=O)(O)O)[C@@H]3O)[C@@H](O)[C@H]2O)c1 [NADP, nicotinamide adenine dinucleotide phosphate]
- Km ([2]; reaction of NADP and myo-inositol, read-out: Km-value (NADP)): 190 µM

Molecule: NC(=S)c1ccc[n+]([C@@H]2O[C@H](COP(=O)([O-])OP(=O)(O)OC[C@H]3O[C@@H](n4cnc5c(N)ncnc54)[C@H](OP(=O)(O)O)[C@@H]3O)[C@@H](O)[C@H]2O)c1 [thio-NADP, thionicotinamide adenine dinucleotide phosphate]
- Km ([2]; reaction of thio-NADP and myo-inositol, read-out: Km-value (thio-NADP)): 2540 µM

Molecule: galactose
- Substrate specificity (relative activity) [1]: 0%

Molecule: mannose
- Substrate specificity (relative activity) [1]: 0%

Molecule: glucose
- Substrate specificity (relative activity) [1]: 0%

Molecule: OC[C@H]1O[C@@H](O[C@H]2[C@H](O)[C@@H](O)C(O)O[C@@H]2CO)[C@H](O)[C@@H](O)[C@H]1O (stereo partly drawn) [lactose]
- Substrate specificity (relative activity) [1]: 0%

Molecule: OC[C@H]1O[C@H](O[C@H]2[C@H](O)[C@@H](O)[C@H](O)O[C@@H]2CO)[C@H](O)[C@@H](O)[C@@H]1O [maltose]
- Substrate specificity (relative activity) [1]: 0%

Molecule: NC(=S)c1ccc[n+]([C@@H]2O[C@H](COP(=O)([O-])OP(=O)(O)OC[C@H]3O[C@@H](n4cnc5c(N)ncnc54)[C@H](O)[C@@H]3O)[C@@H](O)[C@H]2O)c1 [thio-NAD, thionicotinamide adenine dinucleotide]
- Km ([2]; 150 mM myo-inositol, read-out: Km-value (thio-NAD)): 170 µM
- Relative activity when coenzyme thio-NAD is used, as compared to NAD [4]: 10-15%

Molecule: O=C(CO)[C@@H](O)[C@H](O)[C@H](O)CO [fructose]
- Substrate specificity (relative activity) [1]: 0%
